Data reported in PubChem BioAssay (NCI).
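The compound was tested at five concentrations on cells cultured in 96-well plates, with a 48-hour exposure period. At the GI50, growth is halved. TGI marks complete inhibition of growth.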

Columns and labels:
Assay in all cases: growth of human tumour cells (NCI), 48 h
786-0 renal = tested on: 786-0 renal
A498 renal = tested on: A498 renal
A549 NSCLC = tested on: A549 NSCLC
ACHN renal = tested on: ACHN renal
BT-549 breast = tested on: BT-549 breast
CAKI-1 renal = tested on: CAKI-1 renal
COLO 205 colon = tested on: COLO 205 colon
DU-145 prostate = tested on: DU-145 prostate
EKVX NSCLC = tested on: EKVX NSCLC
HCC-2998 colon = tested on: HCC-2998 colon
HCT-116 colon = tested on: HCT-116 colon
HCT-15 colon = tested on: HCT-15 colon
HL-60(TB) leukemia = tested on: HL-60(TB) leukemia
HOP-62 NSCLC = tested on: HOP-62 NSCLC
HS 578T breast = tested on: HS 578T breast
HT29 colon = tested on: HT29 colon
IGROV1 ovarian = tested on: IGROV1 ovarian
K-562 leukemia = tested on: K-562 leukemia
KM12 colon = tested on: KM12 colon
LOX IMVI melanoma = tested on: LOX IMVI melanoma
M14 melanoma = tested on: M14 melanoma
MALME-3M melanoma = tested on: MALME-3M melanoma
MCF7 breast = tested on: MCF7 breast
MDA-MB-231 breast = tested on: MDA-MB-231 breast
MDA-MB-435 = tested on: MDA-MB-435
MOLT-4 leukemia = tested on: MOLT-4 leukemia
NCI-H226 lung = tested on: NCI-H226 lung
NCI-H23 lung = tested on: NCI-H23 lung
NCI-H460 lung = tested on: NCI-H460 lung
NCI-H522 lung = tested on: NCI-H522 lung
NCI/ADR-RES ovarian = tested on: NCI/ADR-RES ovarian
OVCAR-3 ovarian = tested on: OVCAR-3 ovarian
OVCAR-4 ovarian = tested on: OVCAR-4 ovarian
OVCAR-5 ovarian = tested on: OVCAR-5 ovarian
OVCAR-8 ovarian = tested on: OVCAR-8 ovarian
RXF 393 renal = tested on: RXF 393 renal
SF-268 CNS = tested on: SF-268 CNS
SF-295 CNS = tested on: SF-295 CNS
SF-539 CNS = tested on: SF-539 CNS
SK-MEL-2 melanoma = tested on: SK-MEL-2 melanoma
SK-MEL-28 melanoma = tested on: SK-MEL-28 melanoma
SK-MEL-5 melanoma = tested on: SK-MEL-5 melanoma
SK-OV-3 ovarian = tested on: SK-OV-3 ovarian
SN12C renal = tested on: SN12C renal
SNB-19 CNS = tested on: SNB-19 CNS
SNB-75 CNS = tested on: SNB-75 CNS
SR leukemia = tested on: SR leukemia
SW-620 colon = tested on: SW-620 colon
T-47D breast = tested on: T-47D breast
TK-10 renal = tested on: TK-10 renal
U251 CNS = tested on: U251 CNS
UACC-257 melanoma = tested on: UACC-257 melanoma
UACC-62 melanoma = tested on: UACC-62 melanoma
UO-31 renal = tested on: UO-31 renal

Q: Which results are given for `CC#CC#Cc1cccc(=O)o1`?
A: GI50 (786-0 renal): 13.6 µM; TGI (786-0 renal): 28.9 µM; GI50 (A498 renal): 16.5 µM; TGI (A498 renal): 30 µM; GI50 (A549 NSCLC): 14.6 µM; TGI (A549 NSCLC): 31.5 µM; GI50 (ACHN renal): 8.15 µM; TGI (ACHN renal): 20.6 µM; GI50 (BT-549 breast): 2.37 µM; TGI (BT-549 breast): 10.1 µM; GI50 (CAKI-1 renal): 2.1 µM; TGI (CAKI-1 renal): 4.78 µM; GI50 (COLO 205 colon): 3.85 µM; TGI (COLO 205 colon): 14.4 µM; GI50 (DU-145 prostate): 15.7 µM; TGI (DU-145 prostate): 29.2 µM; GI50 (EKVX NSCLC): 3.14 µM; TGI (EKVX NSCLC): 16.2 µM; GI50 (HCC-2998 colon): 16 µM; TGI (HCC-2998 colon): 29.5 µM; GI50 (HCT-116 colon): 2.1 µM; TGI (HCT-116 colon): 5.79 µM; GI50 (HCT-15 colon): 8.08 µM; TGI (HCT-15 colon): 30.2 µM; GI50 (HL-60(TB) leukemia): 2.91 µM; TGI (HL-60(TB) leukemia): 18.1 µM; GI50 (HOP-62 NSCLC): 13.8 µM; TGI (HOP-62 NSCLC): 27 µM; GI50 (HS 578T breast): 10.2 µM; TGI (HS 578T breast): 81.4 µM; GI50 (HT29 colon): 4.17 µM; TGI (HT29 colon): 14.6 µM; GI50 (IGROV1 ovarian): 4.31 µM; TGI (IGROV1 ovarian): 19.8 µM; GI50 (K-562 leukemia): 0.0136 µM; TGI (K-562 leukemia): > 100 µM; GI50 (KM12 colon): 4.87 µM; TGI (KM12 colon): 17 µM; GI50 (LOX IMVI melanoma): 10.7 µM; TGI (LOX IMVI melanoma): 24.1 µM; GI50 (M14 melanoma): 9.52 µM; TGI (M14 melanoma): 24.3 µM; GI50 (MALME-3M melanoma): 2.8 µM; TGI (MALME-3M melanoma): 14.1 µM; GI50 (MCF7 breast): 3.4 µM; TGI (MCF7 breast): 18.4 µM; GI50 (MDA-MB-231 breast): 10.8 µM; TGI (MDA-MB-231 breast): 24.7 µM; GI50 (MDA-MB-435): 3.82 µM; TGI (MDA-MB-435): 22.7 µM; GI50 (MOLT-4 leukemia): 1.14 µM; TGI (MOLT-4 leukemia): > 100 µM; GI50 (NCI-H226 lung): 21 µM; TGI (NCI-H226 lung): 96.1 µM; GI50 (NCI-H23 lung): 5.97 µM; TGI (NCI-H23 lung): 21.8 µM; GI50 (NCI-H460 lung): 13.5 µM; TGI (NCI-H460 lung): 29 µM; GI50 (NCI-H522 lung): 3.67 µM; TGI (NCI-H522 lung): 16.3 µM; GI50 (NCI/ADR-RES ovarian): 18.2 µM; TGI (NCI/ADR-RES ovarian): > 100 µM; GI50 (OVCAR-3 ovarian): 3.34 µM; TGI (OVCAR-3 ovarian): 10.2 µM; GI50 (OVCAR-4 ovarian): 13 µM; TGI (OVCAR-4 ovarian): 25.6 µM; GI50 (OVCAR-5 ovarian): 24.2 µM; TGI (OVCAR-5 ovarian): 40 µM; GI50 (OVCAR-8 ovarian): 4.89 µM; TGI (OVCAR-8 ovarian): > 100 µM; GI50 (RXF 393 renal): 2.48 µM; TGI (RXF 393 renal): 6.63 µM; GI50 (SF-268 CNS): 4.29 µM; TGI (SF-268 CNS): 18.1 µM; GI50 (SF-295 CNS): 12.8 µM; TGI (SF-295 CNS): 26.3 µM; GI50 (SF-539 CNS): 5.63 µM; TGI (SF-539 CNS): 26.6 µM; GI50 (SK-MEL-2 melanoma): 3.73 µM; TGI (SK-MEL-2 melanoma): 34.3 µM; GI50 (SK-MEL-28 melanoma): 4.25 µM; TGI (SK-MEL-28 melanoma): 16.7 µM; GI50 (SK-MEL-5 melanoma): 11.3 µM; TGI (SK-MEL-5 melanoma): 26.7 µM; GI50 (SK-OV-3 ovarian): 20.5 µM; TGI (SK-OV-3 ovarian): 56.4 µM; GI50 (SN12C renal): 26.8 µM; TGI (SN12C renal): > 100 µM; GI50 (SNB-19 CNS): 16.9 µM; TGI (SNB-19 CNS): 30.5 µM; GI50 (SNB-75 CNS): 4.75 µM; TGI (SNB-75 CNS): 21 µM; GI50 (SR leukemia): 1.38 µM; TGI (SR leukemia): 7.2 µM; GI50 (SW-620 colon): 10 µM; TGI (SW-620 colon): 24.9 µM; GI50 (T-47D breast): 4.35 µM; TGI (T-47D breast): 18.7 µM; GI50 (TK-10 renal): 5.08 µM; TGI (TK-10 renal): 18.3 µM; GI50 (U251 CNS): 11.2 µM; TGI (U251 CNS): 24.9 µM; GI50 (UACC-257 melanoma): 8.58 µM; TGI (UACC-257 melanoma): 23.3 µM; GI50 (UACC-62 melanoma): 2.98 µM; TGI (UACC-62 melanoma): 14.6 µM; GI50 (UO-31 renal): 10.2 µM; TGI (UO-31 renal): 22.6 µM
